Patent US6914045B2, “Glycopeptide antibiotics” (Wyeth Holdings Corporation, priority 2001, dated 2005)
Values after ≈ are worked out from the molar mass of the structure shown.

Legend:
Assay in all cases: in vitro antibacterial evaluation, MIC by broth dilution
Type in all cases: cell-based
Escherichia coli = conditions: 18 hours at 35° C.
In short: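 MIC is the lowest antibiotic concentration (tested 64-0.06 μg/mL) preventing growth of a 5×10^5 CFU/mL inoculum. Determined by broth dilution in Mueller-Hinton II medium following NCCLS standard M7-A2.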

Staphylococcus sp. = conditions: broth dilution, 18 hours at 35° C.
In short: (§1)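 Test organisms, which included recent clinical isolates resistant to methicillin, penicillin and/or vancomycin, were inoculated at 5×10^5 CFU/mL into Muller-Hinton II […] containing antibiotic at 64-0.06 μg/mL. Minimum inhibitory concentrations were then read as the lowest level inhibiting growth.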

Streptococcus sp. = conditions: broth dilution, 18 hours at 35° C.
In short: as §1

Enterococcus sp. = conditions: broth dilution, 18 hours at 35° C.
In short: as §1

## CC(c1ccccc1)C1NC(=O)CNC(=O)C(CO)NC(=O)C(C(O)C2CN(Cc3ccccc3)C(=NCc3ccccc3)N2C2OC(CO)C(O)C(O)C2O)NC(=O)C(C(O)C2CN(Cc3ccccc3)C(=NCc3ccccc3)N2Cc2ccccc2)NC(=O)C(Cc2ccc(OC3OC(CO)C(OC4OC5COC6(OC5C(O)C4O)C4CC5CC(C4)CC6C5)C(O)C3O)cc2)NC1=O (stereo not drawn) [Example 79, Cyclo[glycyl-β-methylphenylalanyl-O-[4-O-[4,6-O-(2-adamantylidene)hexotpyranosyl]hexopyranosyl]tyrosyl-3-[1,3-dibenzyl-2-(benzylimino)imidazolidin-4-yl]seryl-3-[1-benzyl-2-(benzylimino)-3-hexopyranosylimidazolidin-4-yl]serylseryl]]
Escherichia coli
  MIC Escherichia coli (ATCC 25922): >128 µg/mL
  MIC Escherichia coli (GC 4559): >128 µg/mL
  MIC Escherichia coli (GC 4560): 2 µg/mL (≈ 1.06 µM)
Staphylococcus sp.; strain ATCC 29213
  MIC Staphylococcus aureus (ATCC 29213): 4 µg/mL (≈ 2.13 µM)
Staphylococcus sp.; strain GC 1131
  MIC Staphylococcus aureus (GC 1131): 8 µg/mL (≈ 4.26 µM)
Staphylococcus sp.; strain GC 3051
  MIC Staphylococcus aureus (GC 3051): 4 µg/mL (≈ 2.13 µM)
Staphylococcus sp.; strain GC 3053
  MIC Staphylococcus aureus (GC 3053): 4 µg/mL (≈ 2.13 µM)
Staphylococcus sp.; strain GC 4541
  MIC Staphylococcus aureus (GC 4541): 4 µg/mL (≈ 2.13 µM)
Staphylococcus sp.; strain GC 4542
  MIC Staphylococcus aureus (GC 4542): 4 µg/mL (≈ 2.13 µM)
Staphylococcus sp.; strain GC 4543
  MIC Staphylococcus aureus-SMITH (GC 4543): 4 µg/mL (≈ 2.13 µM)
Staphylococcus sp.; strain GC 4544
  MIC Staphylococcus aureus (GC 4544): 8 µg/mL (≈ 4.26 µM)
Staphylococcus sp.; strain GC 4545
  MIC Staphylococcus aureus (GC 4545): 4 µg/mL (≈ 2.13 µM)
Staphylococcus sp.; strain GC 4546
  MIC Staphylococcus haemolyticus (GC 4546): 4 µg/mL (≈ 2.13 µM)
Staphylococcus sp.; strain GC 4547
  MIC Coagulase Negative Staphylococcus (GC 4547): 4 µg/mL (≈ 2.13 µM)
Staphylococcus sp.; strain GC 4548
  MIC Coagulase Negative Staphylococcus (GC 4548): 4 µg/mL (≈ 2.13 µM)
Staphylococcus sp.; strain GC 4549
  MIC Coagulase Negative Staphylococcus (GC 4549): 2 µg/mL (≈ 1.06 µM)
Staphylococcus sp.; strain GC 4551
  MIC Coagulase Negative Staphylococcus (GC 4551): 4 µg/mL (≈ 2.13 µM)
Staphylococcus sp.; strain GC 6257
  MIC Coagulase Negative Staphylococcus (GC 6257): 4 µg/mL (≈ 2.13 µM)
Streptococcus sp.
  MIC Streptococcus agalactiae (GC 4564): 4 µg/mL (≈ 2.13 µM)
  MIC Streptococcus pneumoniae (ATCC 6301): 4 µg/mL (≈ 2.13 µM)
  MIC Streptococcus pneumoniae (GC 1894): 8 µg/mL (≈ 4.26 µM)
  MIC Streptococcus pneumoniae (GC 4565): 8 µg/mL (≈ 4.26 µM)
  MIC Streptococcus pyogenes (GC 4563): 4 µg/mL (≈ 2.13 µM)
Streptococcus sp.; strain ATCC 6301
  MIC Streptococcus pneumoniae (ATCC 6301): 4 µg/mL (≈ 2.13 µM)
Streptococcus sp.; strain GC 1894
  MIC Streptococcus pneumoniae (GC 1894): 8 µg/mL (≈ 4.26 µM)
Streptococcus sp.; strain GC 4563
  MIC Streptococcus pyogenes (GC 4563): 4 µg/mL (≈ 2.13 µM)
Streptococcus sp.; strain GC 4564
  MIC Streptococcus agalactiae (GC 4564): 4 µg/mL (≈ 2.13 µM)
Streptococcus sp.; strain GC 4565
  MIC Streptococcus pneumoniae (GC 4565): 8 µg/mL (≈ 4.26 µM)
Enterococcus sp.; Enterococcus avium (GC 4558)
  MIC Enterococcus avium (GC 4558): 2 µg/mL (≈ 1.06 µM)
Enterococcus sp.; Enterococcus faecalis (ATCC 29212)
  MIC Enterococcus faecalis (ATCC 29212): 8 µg/mL (≈ 4.26 µM)
Enterococcus sp.; Enterococcus faecalis (GC 4552)
  MIC Enterococcus faecalis (GC 4552): 32 µg/mL (≈ 17 µM)
Enterococcus sp.; Enterococcus faecalis (GC 4553)
  MIC Enterococcus faecalis (GC 4553): 4 µg/mL (≈ 2.13 µM)
Enterococcus sp.; Enterococcus faecalis (GC 4554)
  MIC Enterococcus faecalis (GC 4554): 16 µg/mL (≈ 8.52 µM)
Enterococcus sp.; Enterococcus faecalis (GC 6189)
  MIC Enterococcus faecalis (GC 6189): 8 µg/mL (≈ 4.26 µM)
Enterococcus sp.; Enterococcus faecium (GC 2243)
  MIC Enterococcus faecium (GC 2243): 8 µg/mL (≈ 4.26 µM)
Enterococcus sp.; Enterococcus faecium (GC 4556)
  MIC Enterococcus faecium (GC 4556): 32 µg/mL (≈ 17 µM)
Enterococcus sp.; Enterococcus faecium (GC 4557)
  MIC Enterococcus faecium (GC 4557): 4 µg/mL (≈ 2.13 µM)
Enterococcus sp.
  MIC Enterococcus avium (GC 4558): 2 µg/mL (≈ 1.06 µM)
  MIC Enterococcus faecalis (ATCC 29212): 8 µg/mL (≈ 4.26 µM)
  MIC Enterococcus faecalis (GC 2242): 16 µg/mL (≈ 8.52 µM)
  MIC Enterococcus faecalis (GC 2691): 8 µg/mL (≈ 4.26 µM)
  MIC Enterococcus faecalis (GC 3059): 32 µg/mL (≈ 17 µM)
  MIC Enterococcus faecalis (GC 4552): 32 µg/mL (≈ 17 µM)
  MIC Enterococcus faecalis (GC 4553): 4 µg/mL (≈ 2.13 µM)
  MIC Enterococcus faecalis (GC 4554): 16 µg/mL (≈ 8.52 µM)
  MIC Enterococcus faecalis (GC 6189): 8 µg/mL (≈ 4.26 µM)
  MIC Enterococcus faecium (GC 2243): 8 µg/mL (≈ 4.26 µM)
  MIC Enterococcus faecium (GC 4556): 32 µg/mL (≈ 17 µM)
  MIC Enterococcus faecium (GC 4557): 4 µg/mL (≈ 2.13 µM)
Enterococcus sp.; strain GC 2242
  MIC Enterococcus faecalis (GC 2242): 16 µg/mL (≈ 8.52 µM)
Enterococcus sp.; strain GC 2691
  MIC Enterococcus faecalis (GC 2691): 8 µg/mL (≈ 4.26 µM)
Enterococcus sp.; strain GC 3059
  MIC Enterococcus faecalis (GC 3059): 32 µg/mL (≈ 17 µM)
